How the values were obtained:
[1] = tested on: normal NK cells expanded with K562-aAPC; test: percent inhibition of viability; higher = more inhibition; settings: 72 h, IL-2 2.5 ng/mL
Method: (§1)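 Drug sensitivity and resistance testing on K562-aAPC-expanded normal NK cells: 5 concentrations (10-fold steps over a 10,000-fold range), 72 h at 37 °C, viability by CellTiter-Glo normalised to DMSO and benzethonium chloride controls; DSS from the fitted curve.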

[2] = tested on: normal NK cells expanded with K562-aAPC; test: drug sensitivity score (DSS) (DSS units); higher = more sensitive; extreme values may be limits of the assay; settings: 72 h; IL-2 2.5 ng/mL
Method: as §1

DERL-7 (IL-2 2.5 ng/mL) [3] = test: as above; settings: 72 h
[4] = tested on: normal primary NK cells, pool 1 (3 donors) (IL-2 2.5 ng/mL); test: as above; settings: 72 h
YT (IL-2 2.5 ng/mL) [5] = test: as above; settings: 72 h
KAI3 (IL-2 2.5 ng/mL) [6] = test: as above; settings: 72 h
NKL (IL-2 2.5 ng/mL) [7] = test: as above; settings: 72 h
KHYG-1 (IL-2 2.5 ng/mL) [8] = test: as above; settings: 72 h
[9] = tested on: normal primary NK cells, pool 1 (3 donors), resting (IL-2 0 ng/mL); test: as above; settings: 72 h
SNK-6 (IL-2 2.5 ng/mL) [10] = test: as above; settings: 72 h
NK-92 (IL-2 2.5 ng/mL) [11] = test: as above; settings: 72 h
NK-YS (IL-2 2.5 ng/mL) [12] = test: as above; settings: 72 h
IMC-1 (IL-2 20 ng/mL) [13] = test: as above; settings: 72 h
[14] = tested on: normal primary NK cells, pool 2 (3 donors) (IL-2 2.5 ng/mL); test: as above; settings: 72 h
[15] = tested on: normal primary NK cells, pool 3 (3 donors) (IL-2 2.5 ng/mL); test: as above; settings: 72 h
DERL-7 (IL-2 2.5 ng/mL) [16] = test: percent inhibition of viability; higher = more inhibition; settings: 72 h
[17] = tested on: normal primary NK cells, pool 1 (3 donors) (IL-2 2.5 ng/mL); test: as above; settings: 72 h
YT (IL-2 2.5 ng/mL) [18] = test: as above; settings: 72 h
KAI3 (IL-2 2.5 ng/mL) [19] = test: as above; settings: 72 h
NKL (IL-2 2.5 ng/mL) [20] = test: as above; settings: 72 h
KHYG-1 (IL-2 2.5 ng/mL) [21] = test: as above; settings: 72 h
[22] = tested on: normal primary NK cells, pool 1 (3 donors), resting (IL-2 0 ng/mL); test: as above; settings: 72 h
SNK-6 (IL-2 2.5 ng/mL) [23] = test: as above; settings: 72 h
NK-92 (IL-2 2.5 ng/mL) [24] = test: as above; settings: 72 h
NK-YS (IL-2 2.5 ng/mL) [25] = test: as above; settings: 72 h
IMC-1 (IL-2 20 ng/mL) [26] = test: as above; settings: 72 h
[27] = tested on: normal primary NK cells, pool 2 (3 donors) (IL-2 2.5 ng/mL); test: as above; settings: 72 h
[28] = tested on: normal primary NK cells, pool 3 (3 donors) (IL-2 2.5 ng/mL); test: as above; settings: 72 h

CNC(=O)c1ccc(N2C(=S)N(c3ccc(C#N)c(C(F)(F)F)c3)C(=O)C2(C)C)cc1F [Enzalutamide] (max concentration tested 10000 nM)
percent inhibition of viability [%]
Settings | 1 nM | 10 nM | 100 nM | 1000 nM | 10000 nM
DERL-7 (IL-2 2.5 ng/mL) [16] | -1.7 | -4.09 | -9.3 | -2.76 | -5
IMC-1 (IL-2 20 ng/mL) [26] | -3.38 | 0.92 | -2.2 | -1.9 | 18.3
KAI3 (IL-2 2.5 ng/mL) [19] | -6.43 | -7.59 | -3.84 | -14.2 | -5.9
KHYG-1 (IL-2 2.5 ng/mL) [21] | -6.93 | -4.23 | -3.55 | -6.97 | 4.84
NK-92 (IL-2 2.5 ng/mL) [24] | 1.65 | -8.18 | -6.81 | -3.14 | 20.8
NK-YS (IL-2 2.5 ng/mL) [25] | -6.5 | -3.69 | -3.22 | -8.67 | 5.9
NKL (IL-2 2.5 ng/mL) [20] | -2.17 | -13.2 | -14 | -9.34 | 1.3
SNK-6 (IL-2 2.5 ng/mL) [23] | 12.3 | 20.8 | -9.97 | 42.2 | 17.6
YT (IL-2 2.5 ng/mL) [18] | -1.41 | -1.46 | -3.16 | -4.82 | 3.56
[1] | -2.32 | -10.8 | -8.2 | -6.11 | -8.96
[17] | -3.9 | 0.9 | -0.41 | -2.29 | 4.21
[22] | 7.62 | -0.58 | -1.62 | 6.1 | 31.6
[27] | -10.2 | -3.87 | -13.1 | -6.47 | 3.77
[28] | -14.6 | -16.8 | -6.74 | -9.3 | -4.81

Settings | drug sensitivity score
DERL-7 (IL-2 2.5 ng/mL) [3] | 0
IMC-1 (IL-2 20 ng/mL) [13] | 0.37
KAI3 (IL-2 2.5 ng/mL) [6] | 0
KHYG-1 (IL-2 2.5 ng/mL) [8] | 0
NK-92 (IL-2 2.5 ng/mL) [11] | 0.49
NK-YS (IL-2 2.5 ng/mL) [12] | 0
NKL (IL-2 2.5 ng/mL) [7] | 0
SNK-6 (IL-2 2.5 ng/mL) [10] | 4.37
YT (IL-2 2.5 ng/mL) [5] | 0
[2] | 0
[4] | 0
[9] | 2.39
[14] | 0
[15] | 0

CCN(CC)CCCC(C)Nc1c2ccc(Cl)cc2nc2ccc(OC)cc12 (stereo unspecified) [Mepacrine] (max concentration tested 50000 nM)
percent inhibition of viability [%]
Settings | 5 nM | 50 nM | 500 nM | 5000 nM | 50000 nM
IMC-1 (IL-2 20 ng/mL) [26] | -0.62 | -1.1 | 2.08 | 100 | 101
[1] | -2.84 | -3.46 | -4.79 | 100 | 101
[27] | -13.9 | -3.31 | 9.39 | 98 | 101
[28] | -11.7 | 0.46 | 1.96 | 98.8 | 101

Settings | drug sensitivity score
IMC-1 (IL-2 20 ng/mL) [13] | 18.2
[2] | 17.6
[14] | 19.4
[15] | 18.1

Oc1ncc(N(CCCl)CCCl)c(O)n1 [Uramustine] (max concentration tested 10000 nM)
percent inhibition of viability [%]
Settings | 1 nM | 10 nM | 100 nM | 1000 nM | 10000 nM
IMC-1 (IL-2 20 ng/mL) [26] | -9.69 | 0.32 | 0.64 | 0.1 | 6.18
[1] | -9.68 | -7.07 | -4 | 3.8 | 14.6
[27] | -0.88 | 5.22 | 7.92 | 6.65 | 14.2
[28] | -4.89 | 6.36 | 6.72 | 4.62 | 8.5

Settings | drug sensitivity score
IMC-1 (IL-2 20 ng/mL) [13] | 0
[2] | 0.53
[14] | 0.26
[15] | 0

CN(C)C(=O)c1cc2cnc(Nc3ccc(N4CCNCC4)cn3)nc2n1C1CCCC1 [Ribociclib] (max concentration tested 10000 nM)
percent inhibition of viability [%]
Settings | 1 nM | 10 nM | 100 nM | 1000 nM | 10000 nM
IMC-1 (IL-2 20 ng/mL) [26] | -7.57 | -0.52 | -5.29 | 0.27 | 7.32
[1] | -3.33 | -2.59 | 0.08 | 20.6 | 22.7
[27] | -4.92 | -2.8 | 8.5 | 5.64 | 48.2
[28] | -3.67 | -4.43 | 6 | 1.54 | 30.9

Settings | drug sensitivity score
IMC-1 (IL-2 20 ng/mL) [13] | 0
[2] | 3.05
[14] | 3.47
[15] | 1.58

CN(C)C(=O)c1cc2cnc(Nc3ccc(N4CCNCC4)cn3)nc2n1C1CCCC1 [NVP-LEE011] (max concentration tested 10000 nM)
Settings | drug sensitivity score
DERL-7 (IL-2 2.5 ng/mL) [3] | 3.81
KAI3 (IL-2 2.5 ng/mL) [6] | 2
KHYG-1 (IL-2 2.5 ng/mL) [8] | 9.33
NK-92 (IL-2 2.5 ng/mL) [11] | 2.18
NK-YS (IL-2 2.5 ng/mL) [12] | 4.9
NKL (IL-2 2.5 ng/mL) [7] | 2.07
SNK-6 (IL-2 2.5 ng/mL) [10] | 1.78
YT (IL-2 2.5 ng/mL) [5] | 3.67
[4] | 3.77
[9] | 6.2

percent inhibition of viability [%]
Settings | DERL-7 (IL-2 2.5 ng/mL) [16] | KAI3 (IL-2 2.5 ng/mL) [19] | KHYG-1 (IL-2 2.5 ng/mL) [21] | NK-92 (IL-2 2.5 ng/mL) [24] | NK-YS (IL-2 2.5 ng/mL) [25] | NKL (IL-2 2.5 ng/mL) [20] | SNK-6 (IL-2 2.5 ng/mL) [23] | YT (IL-2 2.5 ng/mL) [18] | [17] | [22]
1 nM | -3.18 | -3.87 | -4.23 | -9.54 | -2.35 | -12.3 | -8.9 | -3.41 | 4.32 | 7.64
10 nM | 4.13 | 1.07 | 0.91 | -16.1 | -0.02 | -11.2 | 3.64 | -2.71 | 8.46 | 12.1
100 nM | 1.76 | -4.85 | -1.06 | -4.22 | 5.18 | -15 | -2.64 | -0.92 | 8.7 | 17.7
1000 nM | 11.2 | 4.66 | 37.5 | 15.8 | 22.1 | -6.48 | 12.5 | 9.6 | 6.05 | 14.8
10000 nM | 41.6 | 29.2 | 81.3 | 20.8 | 48 | 47.9 | 19.8 | 42.3 | 51.8 | 51.6

From the supplement of paper PMC5908809
